system: ATF4 luciferase reporter in HEK293T cells; test: ATF4-Luc assay (in vitro model of VWMD); format: cell-based, human; settings: Homo sapiens, HEK-293T, 7 h, HEK293T cells carrying the ATF4 luciferase reporter, 1 μg/mL tunicamycin, One Glo luminescence
Method in brief: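 Tunicamycin (1 μg/mL) stress with co-added compound for 7 hours in HEK293T cells stably carrying an ATF4 5′-UTR–luciferase reporter. EC50 values come from the luminescent signal (One Glo).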

Question: `O=C(NC12CC(n3cc(O[C@H]4C[C@H](OC(F)(F)F)C4)cn3)(C1)C2)[C@H]1C[C@@H](O)c2cc(Cl)ccc2O1` [Compound 587, (2R,4R)-6-chloro-4-hydroxy-N-[3-(4-{[(1r,3R)-3-(trifluoromethoxy)cyclobutyl]oxy}-1H-pyrazol-1-yl)bicyclo[1.1.1]pentan-1-yl]-3,4-dihydro-2H-1-benzopyran-2-carboxamide] was tested. Which EC50 did it give?
Answer: < 10 nM

Question: Which EC50 does the source give for `O=C(NC12CC(n3cnc([C@H]4C[C@@H](OC(F)(F)F)C4)c3)(C1)C2)[C@H]1C[C@@H](O)c2cc(Cl)c(F)cc2O1` [Compound 472, (2R,4R)-6-chloro-7-fluoro-4-hydroxy-N-(3-{4-[(1s,3S)-3-(trifluoromethoxy)cyclobutyl]-1H-imidazol-1-yl}bicyclo[1.1.1]pentan-1-yl)-3,4-dihydro-2H-1-benzopyran-2-carboxamide] here?
Answer: < 10 nM

Question: With `O=C(COc1ccc(Cl)c(F)c1)NC12CC(n3cc(OC[C@H]4C[C@@H](OC(F)(F)F)C4)cn3)(C1)C2` [Compound 612, 2-(4-chloro-3-fluorophenoxy)-N-[3-(4-{[(1s,3s)-3-(trifluoromethoxy)cyclobutyl]methoxy}-1H-pyrazol-1-yl)bicyclo[1.1.1]pentan-1-yl]acetamide] as the compound, how does the EC50 read?
Answer: < 10 nM

Question: How did the EC50 turn out when `O=C(NC12CC(n3cc(OCCCC(F)(F)F)cn3)(C1)C2)[C@H]1C[C@@H](O)c2cc(Cl)ccc2O1` [Compound 517, (2R,4R)-6-chloro-4-hydroxy-N-{3-[4-(4,4,4-trifluorobutoxy)-1H-pyrazol-1-yl]bicyclo[1.1.1]pentan-1-yl}-3,4-dihydro-2H-1-benzopyran-2-carboxamide] was run?
Answer: < 10 nM

Question: Which EC50 does the source give for `O=C(NC12CC(n3cc(C(=O)N4CC[C@H](OC(F)(F)F)C4)cn3)(C1)C2)[C@H]1C[C@@H](O)c2cc(C(F)(F)F)ccc2O1` [Compound 326, (2R,4R)-4-hydroxy-N-(3-{4-[(3S)-3-(trifluoromethoxy)pyrrolidine-1-carbonyl]-1H-pyrazol-1-yl}bicyclo[1.1.1]pentan-1-yl)-6-(trifluoromethyl)-3,4-dihydro-2H-1-benzopyran-2-carboxamide] here?
Answer: < 10 nM

Question: How did the EC50 turn out when `O=C(N[C@H]1CC[C@H](n2cc(-c3ccc(C(F)(F)F)cn3)cn2)CC1)[C@H]1C[C@@H](O)c2cc(Cl)c(F)cc2O1` [Compound 578, (2R,4R)-6-chloro-7-fluoro-4-hydroxy-N-[(1r,4R)-4-{4-[5-(trifluoromethyl)pyridin-2-yl]-1H-pyrazol-1-yl}cyclohexyl]-3,4-dihydro-2H-1-benzopyran-2-carboxamide] was run?
Answer: < 10 nM

Question: For `COc1ccc2nn(C34CCC(NC(=O)[C@H]5C[C@@H](O)c6cc(Cl)ccc6O5)(C3)C4)cc2c1` [Compound 652, (2R,4R)-6-chloro-4-hydroxy-N-[4-(5-methoxy-2H-indazol-2-yl)bicyclo[2.1.1]hexan-1-yl]-3,4-dihydro-2H-1-benzopyran-2-carboxamide], which EC50 is on record?
Answer: 10 to 50 nM

Question: How did the EC50 turn out when `O=C(NC12CC(n3cc(CCOC(F)(F)F)cn3)(C1)C2)[C@H]1C[C@@H](O)c2cc(Cl)c(F)cc2O1` [Compound 515, (2R,4R)-6-chloro-7-fluoro-4-hydroxy-N-(3-{4-[2-(trifluoromethoxy)ethyl]-1H-pyrazol-1-yl}bicyclo[1.1.1]pentan-1-yl)-3,4-dihydro-2H-1-benzopyran-2-carboxamide] was run?
Answer: 10 to 50 nM

Question: `O=C(COc1ccc(Cl)c(F)c1)NC12CC(n3cc(OCCOC(F)(F)F)cn3)(C1)C2` [Compound 451, 2-(4-chloro-3-fluorophenoxy)-N-(3-{4-[2-(trifluoromethoxy)ethoxy]-1H-pyrazol-1-yl}bicyclo[1.1.1]pentan-1-yl)acetamide] was tested. Which EC50 did it give?
Answer: < 10 nM

Question: With `O=C(NC12CC(n3cc(C4CC(COC(F)(F)F)C4)nn3)(C1)C2)[C@H]1C[C@@H](O)c2cc(Cl)ccc2O1` (stereo partly drawn) [Compound 541, (2R,4R)-6-chloro-4-hydroxy-N-[3-(4-{3-[(trifluoromethoxy)methyl]cyclobutyl}-1H-1,2,3-triazol-1-yl)bicyclo[1.1.1]pentan-1-yl]-3,4-dihydro-2H-1-benzopyran-2-carboxamide] as the compound, how does the EC50 read?
Answer: < 10 nM

Question: With `O=C(COc1ccc(Cl)c(F)c1)NC12CCC(n3cc(C(=O)N4CC[C@H](OC(F)(F)F)C4)cn3)(CC1)CC2` [Compound 624, 2-(4-chloro-3-fluorophenoxy)-N-(4-{4-[(3S)-3-(trifluoromethoxy)pyrrolidine-1-carbonyl]-1H-pyrazol-1-yl}bicyclo[2.2.2]octan-1-yl)acetamide] as the compound, how does the EC50 read?
Answer: < 10 nM

Question: For `O=C(NC12CC(n3cc(C(=O)N4CC(COC(F)F)C4)cn3)(C1)C2)[C@H]1C[C@@H](O)c2cc(Cl)ccc2O1` [Compound 348, (2R,4R)-6-chloro-N-[3-(4-{3-[(difluoromethoxy)methyl]azetidine-1-carbonyl}-1H-pyrazol-1-yl)bicyclo[1.1.1]pentan-1-yl]-4-hydroxy-3,4-dihydro-2H-1-benzopyran-2-carboxamide], which EC50 is on record?
Answer: 50 to 250 nM

Question: For `O=C(NC12CC(n3cc([C@H]4C[C@@H](OC(F)(F)F)C4)nn3)(C1)C2)[C@H]1C[C@@H](O)c2cc(Cl)ccc2O1` [Compound 385, (2R,4R)-6-chloro-4-hydroxy-N-(3-{4-[cis-3-(trifluoromethoxy)cyclobutyl]-1H-1,2,3-triazol-1-yl}bicyclo[1.1.1]pentan-1-yl)-3,4-dihydro-2H-1-benzopyran-2-carboxamide], which EC50 is on record?
Answer: < 10 nM

Question: `O=C(NC12CC(n3cc(N4CC[C@@H](OC(F)(F)F)C4)cn3)(C1)C2)[C@@H]1C[C@@H](O)c2cc(Cl)c(F)cc2O1` [Compound 379, (2S,4R)-6-chloro-7-fluoro-4-hydroxy-N-(3-{4-[(3R)-3-(trifluoromethoxy)pyrrolidin-1-yl]-1H-pyrazol-1-yl}bicyclo[1.1.1]pentan-1-yl)-3,4-dihydro-2H-1-benzopyran-2-carboxamide] was tested. Which EC50 did it give?
Answer: < 10 nM

Question: How did the EC50 turn out when `O=C(NC12CC(n3cc(OCCCOC(F)(F)F)cn3)(C1)C2)[C@H]1C[C@@H](O)c2cc(C(F)(F)F)c(F)cc2O1` [Compound 635, (2R,4R)-7-fluoro-4-hydroxy-N-(3-{4-[3-(trifluoromethoxy)propoxy]-1H-pyrazol-1-yl}bicyclo[1.1.1]pentan-1-yl)-6-(trifluoromethyl)-3,4-dihydro-2H-1-benzopyran-2-carboxamide] was run?
Answer: < 10 nM

Question: Which EC50 does the source give for `O=C(NC12CC(n3cc(OC[C@H]4C[C@@H](OC(F)(F)F)C4)cn3)(C1)C2)[C@H]1C[C@@H](O)c2cc(Cl)ccc2O1` [Compound 402, (2R,4R)-6-chloro-4-hydroxy-N-[3-(4-{[cis-3-(trifluoromethoxy)cyclobutyl]methoxy}-1H-pyrazol-1-yl)bicyclo[1.1.1]pentan-1-yl]-3,4-dihydro-2H-1-benzopyran-2-carboxamide] here?
Answer: < 10 nM

Question: Which EC50 does the source give for `O=C(COc1ccc(Cl)c(F)c1)NC12CC(n3cc([C@H]4[C@@H]5CN(CC(F)(F)F)C[C@@H]54)cn3)(C1)C2` [Compound 625, 2-(4-chloro-3-fluorophenoxy)-N-(3-{4-[(1R,5S,6s)-3-(2,2,2-trifluoroethyl)-3-azabicyclo[3.1.0]hexan-6-yl]-1H-pyrazol-1-yl}bicyclo[1.1.1]pentan-1-yl)acetamide] here?
Answer: < 10 nM

Question: `O=C(NC12CC(c3ccnc(-n4cc(C(F)(F)F)cn4)c3)(C1)C2)[C@H]1C[C@@H](O)c2cc(C(F)(F)F)ccc2O1` [Compound 558, (2R,4R)-4-hydroxy-6-(rifluoromethyl)-N-(3-{2-[4-(trifluoromethyl)-1H-pyrazol-1-yl]pyridin-4-yl}bicyclo[1.1.1]pentan-1-yl)-3,4-dihydro-2H-1-benzopyran-2-carboxamide] was tested. Which EC50 did it give?
Answer: 10 to 50 nM

Reference: US20250145594A1, “MODULATORS OF THE INTEGRATED STRESS PATHWAY” (Calico Life Sciences LLC, priority 2020, published 2025)
